Laboratory results reported in US20220017863A1, “SIRT2-ABLATED CHIMERIC T CELLS” (H. Lee Moffitt Cancer Center and Research Institute, Inc., priority 2019, published 2022).
“Also recorded” adds a separate entry of the source.

Experiments:
human TILs = assay: IFN-γ ELISPOT on human TILs from NSCLC patients; assay type: cell-based; details: AGK2 vs vehicle, 5 patient samples
[1] = target: T1, Sirt2 deacetylase activity (Homo sapiens, UniProt Q8IXJ6); assay: Western blot of acetylated α-tubulin in human CD3+ enriched T cells; assay type: cell-based; details: 48 hr
T1 construct: endogenous in cells; host or cells: human CD3+ T cells enriched from PBMC of healthy donors
T1 sequence (Q8IXJ6 1-389): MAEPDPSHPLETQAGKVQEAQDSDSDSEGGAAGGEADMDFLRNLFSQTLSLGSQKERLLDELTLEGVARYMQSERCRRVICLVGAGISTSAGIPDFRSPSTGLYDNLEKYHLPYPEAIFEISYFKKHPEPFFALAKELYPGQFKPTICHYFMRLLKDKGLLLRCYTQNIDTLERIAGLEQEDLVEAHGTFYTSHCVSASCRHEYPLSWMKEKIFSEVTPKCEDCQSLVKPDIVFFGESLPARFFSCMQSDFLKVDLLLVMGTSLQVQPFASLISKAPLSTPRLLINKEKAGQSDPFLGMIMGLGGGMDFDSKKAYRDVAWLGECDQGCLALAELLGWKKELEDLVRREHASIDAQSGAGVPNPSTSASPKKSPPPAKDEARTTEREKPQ
Method: Human peripheral blood mononuclear cells (PBMC) were obtained from healthy donors by density gradient centrifugation using Ficoll-Paque™ PLUS Media (GE Healthcare). CD3^+ lymphocytes were negatively enriched using human Pan T cell isolation Kit™ (Miltenyi Biotec).
Whole cell lysates were prepared using lysis buffer (Pierce RIPA buffer, ThermoFisher Scientific) supplemented with cOmplete™ Protease Inhibitor Cocktail and PhosSTOP Phosphatase Inhibitor (Roche Applied Science).
Cell lysates (20 ug) or IP samples were loaded onto 10% SDS-PAGE and separated by electrophoresis followed by semi-dry transfer into polyvinylidene fluoride membranes (Immun-Blot PVDF membrane, Bio-Rad) using Trans-Blot Turbo transfer system (Bio-Rad). After transfer, the membranes were blocked at room temperature with Tris-buffered saline (TBS) containing 0.05% Tween-20 (TBST) and 5% (w/v) milk for 1 h and then incubated overnight at 4° C. with a specific primary antibody (indicated below). […] After washing 3 times with TBST, bound antibodies were detected by chemiluminescence using the Pierce™ ECL Western Blotting Substrate and the Super Signal West Femto Maximum Sensitivity Substrate kits (ThermoFisher Scientific). […]

capacity to block Sirt2 deacetylase activity, monitored by acetylated α-tubulin levels [1]: confirmed; also recorded: validated
SMILES: N#C/C(=C/c1ccc(-c2cc(Cl)ccc2Cl)o1)C(=O)Nc1cccc2ncccc12 [AGK2]
IFN-γ production (effector function) (human TILs): increases
